# Patent US20230257703A1, “NANOSCALE POLYMERIC MICELLAR SCAFFOLDS FOR RAPID AND EFFICIENT ANTIBODY PRODUCTION” (Iowa State University Research Foundation, Inc., priority 2020, published 2023)
# Columns and labels:
# [1] = tested on: murine splenic B cells (CD19+); assay: Nur77 expression in B cells by flow cytometry (BCR engagement); format: cell-based, mice; settings: micelle-Ag 10 µg/mL each component, LPS 0.5 µg/mL, anti-IgM F(ab′)2 10 µg/mL
# Excerpt: B cell proliferation was detected using in vitro labeling of cells with CFSE and analysis by flow cytometry. Distinct generations of proliferating cells can be monitored by dilutions of CFSE stain on the cells as viewed on the flow cytometry plots. For the flow cytometry procedure, the cells were transferred into polystyrene FACS tubes and labelled with Zombie Aqua dye for tracking viable cells post-stimulation using manufacturer’s instructions. […] For intracellular staining of Nur77 antibody, following surface staining, cells were washed with PBS and then fixed with 4% p-formaldehyde. After washing the cells again with PBS, 0.1% Triton X-100 was used for permeabilization, and following that, Nur77 Ab at a 1:50 dilution was used to stain the cells. After the staining, cells were washed in FACS buffer to remove excess dye and samples were fixed prior to analysis. The flow cytometry data was collected on FACSCanto II (BD Bioscience, NJ) and analyzed using FlowJo (FlowJo LLC, Ashland, CA).
# [2] = tested on: splenic B cells of Ighel Tg mice (BCRs specific to HEL); assay: CFSE B cell proliferation and viability, splenic cells of Ighel Tg mice; format: cell-based; settings: 10 µg/mL, 4 days
Substance,Nur77 induction [1],B cell proliferation (CFSE^lo peaks) [2]
lipopolysaccharide [LPS],did not trigger Nur77 induction,
hen egg white lysozyme [HEL],,small peak with some proliferation
